Reference: ChEMBL document CHEMBL5038654, “Discovery of Spiro-azaindoline Inhibitors of Hematopoietic Progenitor Kinase 1 (HPK1)” (ACS Med Chem Lett, 2022)

Columns and labels:
[1] = target: T1, Mitogen-activated protein kinase kinase kinase kinase 1 (Homo sapiens, UniProt Q92918); assay: Inhibition of HPK1 in human Jurkat E6.1 cells assessed as SLP76 phosphorylation incubated for 30 mins followed by anti-CD3, biotinylated anti-SLP76 and TMB substrate addition measured after 3 hrs by ELISA assay; type: cell-based
[2] = Apparent permeability across apical to basolateral side in dog MDCK1 cells at 10 uM by LC-MS/MS analysis; type: ADME, cell-based, Canis lupus familiaris; details: for Papp A→B at 10 µM: MDCK
[3] = target: T1, Mitogen-activated protein kinase kinase kinase kinase 1; assay: Inhibition of HPK1 (unknown origin) followed by anti-GST antibody incubated for 60 mins measured after 1 hr by TR-FRET based LanthaScreen Eu-Kinase binding assay
Cytochrome P450 3A4 = Cytochrome P450 3A4 (Homo sapiens, UniProt P08684); assay: Inhibition of CYP3A4 in human liver microsomes using testosterone as substrate by TDI- high-throughput based mass spectrometry method; type: ADME
[4] = Metabolic stability in mouse liver microsomes assessed as intrinsic clearance followed by substrate addition incubated for 30 mins by LC-MS/MS analysis; type: ADME, Microsome; details: read-out: CLH
[5] = Metabolic stability in rat liver microsomes assessed as intrinsic clearance followed by substrate addition incubated for 30 mins by LC-MS/MS analysis; type: ADME, Microsome; details: read-out: CLH
[6] = Metabolic stability in human liver microsomes assessed as intrinsic clearance followed by substrate addition incubated for 30 mins by LC-MS/MS analysis; type: ADME, Microsome; details: read-out: CLH
[7] = target: T1, Mitogen-activated protein kinase kinase kinase kinase 1; assay: Inhibition of HPK1 (unknown origin) preincubated for 30 mins with compound followed by Biotin-SLP-76 substrate in presence of ATP incubated for 60 mins measured after 1 hr by TR-FRET based HTRF enzymatic assay
T-cell line = assay: Effects of compound on IL-2 production in human pan T-cells followed by anti-CD3/CD28-stimulation assessed as increase in IL-2 level incubated for 30 mins by ELISA method; type: functional, cell-based; details: 0.5 h
[8] = Metabolic stability in human hepatocytes assessed as hepatic clearance at 1 uM measured upto 3 hrs by LC-MS/MS analysis; type: ADME, cell-based, Hepatocyte
[9] = Metabolic stability in rat hepatocytes assessed as hepatic clearance; type: ADME, cell-based, Hepatocyte; set-up: dose or concentration left out as unconfirmed
[10] = Metabolic stability in mouse hepatocytes assessed as hepatic clearance; type: ADME, cell-based, Hepatocyte; set-up: dose or concentration left out as unconfirmed
[11] = Blood clearance in female C57BL/6 mouse at 1 mg/kg, iv administered as bolus dose measured upto 24 hrs by LC-MS/MS analysis; type: ADME, organism-based; details: whole blood
[12] = Volume of distribution in female C57BL/6 mouse at 1 mg/kg, iv administered as bolus dose measured upto 24 hrs by LC-MS/MS analysis; type: ADME, organism-based; details: in vivo
[13] = Oral bioavailability in female C57BL/6 mouse at 25 mg/kg measured upto 24 hrs by LC-MS/MS analysis; type: ADME, organism-based; details: in vivo

Cytochrome P450 3A4, sequence (P08684 whole entry): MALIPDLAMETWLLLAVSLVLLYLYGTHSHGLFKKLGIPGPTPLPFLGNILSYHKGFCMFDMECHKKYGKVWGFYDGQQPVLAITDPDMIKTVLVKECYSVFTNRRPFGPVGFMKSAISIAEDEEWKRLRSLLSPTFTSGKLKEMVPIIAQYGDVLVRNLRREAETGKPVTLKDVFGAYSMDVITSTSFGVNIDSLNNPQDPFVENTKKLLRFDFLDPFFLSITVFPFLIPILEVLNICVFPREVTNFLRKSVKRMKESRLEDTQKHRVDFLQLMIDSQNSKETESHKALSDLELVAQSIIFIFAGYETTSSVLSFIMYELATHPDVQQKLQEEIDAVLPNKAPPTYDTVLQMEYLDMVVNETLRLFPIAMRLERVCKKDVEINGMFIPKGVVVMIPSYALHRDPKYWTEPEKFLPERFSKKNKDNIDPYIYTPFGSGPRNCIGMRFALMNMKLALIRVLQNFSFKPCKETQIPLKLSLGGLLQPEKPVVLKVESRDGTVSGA
T1 sequence (Q92918 whole entry): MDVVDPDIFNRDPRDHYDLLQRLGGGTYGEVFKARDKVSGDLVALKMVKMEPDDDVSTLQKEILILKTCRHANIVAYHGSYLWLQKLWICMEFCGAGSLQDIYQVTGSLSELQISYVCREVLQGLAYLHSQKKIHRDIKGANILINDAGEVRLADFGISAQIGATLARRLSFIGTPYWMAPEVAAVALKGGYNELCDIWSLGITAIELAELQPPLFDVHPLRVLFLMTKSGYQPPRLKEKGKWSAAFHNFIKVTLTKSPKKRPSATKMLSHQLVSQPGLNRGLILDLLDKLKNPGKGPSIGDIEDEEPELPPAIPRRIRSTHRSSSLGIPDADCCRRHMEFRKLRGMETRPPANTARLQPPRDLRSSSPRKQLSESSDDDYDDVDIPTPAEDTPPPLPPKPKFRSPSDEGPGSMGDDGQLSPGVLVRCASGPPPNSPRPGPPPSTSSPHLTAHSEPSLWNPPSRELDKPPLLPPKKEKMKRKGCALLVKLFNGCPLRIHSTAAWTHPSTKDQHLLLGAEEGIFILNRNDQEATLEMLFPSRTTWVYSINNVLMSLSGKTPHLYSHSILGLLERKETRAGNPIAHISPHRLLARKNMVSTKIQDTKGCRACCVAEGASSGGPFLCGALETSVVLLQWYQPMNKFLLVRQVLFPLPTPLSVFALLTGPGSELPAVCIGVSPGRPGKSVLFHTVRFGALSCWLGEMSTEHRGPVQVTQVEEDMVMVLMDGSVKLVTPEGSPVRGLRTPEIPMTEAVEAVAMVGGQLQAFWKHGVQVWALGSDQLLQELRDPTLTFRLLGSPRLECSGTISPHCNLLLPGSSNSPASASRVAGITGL

SMILES | IC50 [1] [nM] | Papp A→B at 10 µM [2] [×10⁻⁶ cm/s] | Ki [3] [nM] | IC50 (Cytochrome P450 3A4) [nM] | also measured
CN(C)C(=O)c1c(N)ccc(-c2cnc3c(c2Cl)[C@]2(CC[C@](C)(C#N)CC2)CN3)c1F | 7900 | 26 | – | – | –
CN(C)C(=O)c1c(N)ccc(-c2cnc3c(c2Cl)[C@]2(CC[C@](C)(C#N)C2)CN3)c1F (racemic) | 1700 | 21 | 11 | – | –
CCc1c[nH]c2ncc(-c3ccc(N)c(C(=O)N(C)C)n3)cc12 | – | – | 3.3 | 1600 | predicted hepatic clearance [4]: 81 mL/min/kg; predicted hepatic clearance [5]: 28 mL/min/kg; predicted hepatic clearance [6]: 17 mL/min/kg
CNC(=O)[C@H]1CC[C@@]2(CNc3ncc(-c4ccc(N)c(C(=O)N(C)C)c4F)c(Cl)c32)C1 (racemic) | 7400 | 0.8 | 63 | – | –
Cc1c(-c2ccc(N)c(C(=O)N(C)C)c2F)cnc2c1C1(CC1)CN2 | – | – | 43 | 6500 | –
CN(C)C(=O)c1c(N)ccc(-c2cnc3c(c2Cl)C2(CCCC2)CN3)c1F | 1500 | 23 | 2.5 | 800 | –
CCc1c[nH]c2ncc(-c3ccc(N)c(C(=O)N(C)C)c3)c(CC)c12 | – | – | 2.8 | – | –
COc1ccccc1-c1c[nH]c2ncc(-c3ccc(N)c(C(=O)N(C)C)c3)cc12 | – | – | 0.4 | – | –
CN(C)C(=O)c1c(N)ccc(-c2cnc3c(c2Cl)[C@]2(CC[C@](C)(C(N)=O)C2)CN3)c1F (racemic) | 1100 | 0.3 | 2 | – | –
CN(C)C(=O)c1c(N)ccc(-c2cnc3c(c2Cl)[C@@]2(CC[C@@](C)(C(N)=O)C2)CN3)c1F | > 25000 | 0.4 | 85 | – | –
CCc1c[nH]c2ncc(-c3ccc(N)c(C(=O)N(C)C)c3)cc12 | – | – | 2.1 | 500 | predicted hepatic clearance [4]: 80 mL/min/kg; predicted hepatic clearance [5]: 25 mL/min/kg; predicted hepatic clearance [6]: 12 mL/min/kg
CN(C)C(=O)c1cc(-c2cnc3[nH]ccc3c2)ccc1N | – | – | 1.5 | – | –
CN(C)C(=O)c1c(N)ccc(-c2cnc3c(c2Cl)[C@]2(CC[C@@]4(CCCCNC4=O)C2)CN3)c1F | 1200 | 6.5 | – | – | Ki [7]: 7.2 nM
CN(C)C(=O)c1c(N)ccc(-c2cnc3c(c2Cl)[C@]2(CC[C@@]4(CCCNC4=O)C2)CN3)c1F | 1700 | 7.1 | – | – | Ki [7]: 6.5 nM
CCc1c(Cl)[nH]c2ncc(-c3ccc(N)c(C(=O)N(C)C)c3)cc12 | – | – | 2.7 | 200 | –
CN(C)C(=O)c1c(N)ccc(-c2cnc3c(c2Cl)[C@]2(CC[C@H](c4ncn[nH]4)C2)CN3)c1F (racemic) | 15000 | 0.4 | 14 | – | –
CN(C)C(=O)c1cc(-c2cnc3c(c2)C2(CCCC2)CN3)ccc1N | – | – | 28 | 9800 | –
CN(C)C(=O)c1c(N)ccc(-c2cnc3c(c2Cl)[C@]2(CC[C@](C)(O)C2)CN3)c1F (racemic) | 2000 | 4.1 | 8.1 | – | –
CN(C)C(=O)c1cc(-c2cnc3c(c2)C2(CCC2)CN3)ccc1N | – | – | 66 | > 10000 | –
CN(C)C(=O)c1c(N)ccc(-c2cnc3c(c2Cl)[C@]2(CC[C@H](C(N)=O)C2)CN3)c1F (racemic) | 14000 | 0.2 | 1.8 | – | –
CN(C)C(=O)c1c(N)ccc(-c2cnc3c(c2Cl)C2(CCC2)CN3)c1F | – | – | – | > 10000 | –
CCc1c[nH]c2ncc(-c3ccc(N)c(C(=O)N(C)C)c3F)cc12 | – | – | 0.47 | 700 | predicted hepatic clearance [4]: 80 mL/min/kg; predicted hepatic clearance [5]: 37 mL/min/kg; predicted hepatic clearance [6]: 16 mL/min/kg
CCc1c[nH]c2ncc(-c3ccc(N)c(C(=O)N(C)C)c3)c(Cl)c12 | – | – | 2.6 | – | –
CN(C)C(=O)c1c(N)ccc(-c2cnc3c(c2Cl)[C@]2(CC[C@H](O)C2)CN3)c1F (racemic) | 5000 | 5 | – | – | –
CCc1c[nH]c2ncc(-c3cccc(C(=O)N(C)C)c3)cc12 | – | – | 5.2 | 1700 | predicted hepatic clearance [4]: 84 mL/min/kg; predicted hepatic clearance [5]: 43 mL/min/kg; predicted hepatic clearance [6]: 18 mL/min/kg
CN(C)C(=O)c1c(N)ccc(-c2cnc3c(c2Cl)[C@]2(CC[C@](C)(C(N)=O)C2)CN3)c1F | 440 | – | 0.8 | – | Papp ([2]; mdck1, 10 µM): 0.3 10^-6 cm/s; EC50 (T-cell line): 1560 nM; CLhep predicted at 1 µM [8]: 9.5 mL/min/kg; CLhep predicted [9]: 18 mL/min/kg; CLhep predicted [10]: 33 mL/min/kg; clearance [11]: 57 mL/min/kg; Vd [12]: 1.9 L/kg; bioavailability [13]: 13%
CN(C)C(=O)c1cc(-c2cnc3c(c2)C2(CC2)CN3)ccc1N | – | – | 33 | > 10000 | –
CCc1c[nH]c2ncc(-c3ccc(N)c(C(=O)N(C)C)c3)c(C)c12 | – | – | 2.4 | – | –
CN(C)C(=O)c1c(N)ccc(-c2cnc3c(c2Cl)[C@]2(CC[C@](C)(O)CC2)CN3)c1F | 3000 | 5.7 | 8.2 | – | –
